According to patent publication US20230085307A1, “PYRIDAZINONE COMPOUND AND HERBICIDE” (NISSAN CHEMICAL CORPORATION, priority 2019, published 2023):

Legend:
barnyard grass [1] = assay: Test Example 3: herbicidal effect by foliage application, Wagner pot (Table 18, symbol H); assay type: in vivo, barnyard grass (Echinochloa crus-galli)
In short: (§1)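 Plants were sown in alluvial soil held under 0.1–0.5 cm standing water and grown 14 days in a greenhouse at 25–30 °C. An emulsifiable formulation, water-diluted to the set dose, was then sprayed onto the foliage, and effects were scored three weeks later using previously defined criteria.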

Chinese sprangletop = assay: Test Example 3: herbicidal effect by foliage application, Wagner pot (Table 18, symbol D); assay type: in vivo, chinese sprangletop (Leptochloa chinensis)
In short: as §1

rice flat sedge = assay: Test Example 3: herbicidal effect by foliage application, Wagner pot (Table 18, symbol E); assay type: in vivo, rice flat sedge (Cyperus iria)
In short: as §1

southern crabgrass [2] = assay: Test Example 4: herbicidal effect by soil treatment (Table 19, symbol F); assay type: in vivo, southern crabgrass (Digitaria ciliaris)
In short: (§2)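 Pre-emergence style soil spray: seeds under ~1.5 cm sterilized diluvial soil received a uniform coat of emulsion diluted to the predetermined herbicide amount. Greenhouse 25–30° C; readout at week three on previously defined criteria.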

green foxtail [3] = assay: Test Example 4: herbicidal effect by soil treatment (Table 19, symbol G); assay type: in vivo, green foxtail (Setaria viridis)
In short: as §2

barnyard grass [4] = assay: Test Example 4: herbicidal effect by soil treatment (Table 19, symbol H); assay type: in vivo, barnyard grass (Echinochloa crus-galli)
In short: as §2

wild oat [5] = assay: Test Example 4: herbicidal effect by soil treatment (Table 19, symbol I); assay type: in vivo, wild oat (Avena fatua)
In short: as §2

blackgrass [6] = assay: Test Example 4: herbicidal effect by soil treatment (Table 19, symbol J); assay type: in vivo, blackgrass (Alopecurus myosuroides)
In short: as §2

Italian ryegrass [7] = assay: Test Example 4: herbicidal effect by soil treatment (Table 19, symbol K); assay type: in vivo, Italian ryegrass (Lolium multiflorum)
In short: as §2

windgrass [8] = assay: Test Example 4: herbicidal effect by soil treatment (Table 19, symbol L); assay type: in vivo, windgrass (Apera spica-venti)
In short: as §2

velvetleaf [9] = assay: Test Example 4: herbicidal effect by soil treatment (Table 19, symbol M); assay type: in vivo, velvetleaf (Abutilon theophrasti)
In short: as §2

redroot pigweed = assay: Test Example 4: herbicidal effect by soil treatment (Table 19, symbol N); assay type: in vivo, redroot pigweed (Amaranthus retroflexus)
In short: as §2

lambsquarters [10] = assay: Test Example 4: herbicidal effect by soil treatment (Table 19, symbol O); assay type: in vivo, lambsquarters (Chenopodium album)
In short: as §2

chickweed = assay: Test Example 4: herbicidal effect by soil treatment (Table 19, symbol P); assay type: in vivo, common chickweed (Stellaria media)
In short: as §2

persian speedwell [11] = assay: Test Example 4: herbicidal effect by soil treatment (Table 19, symbol R); assay type: in vivo, Persian speedwell (Veronica persica)
In short: as §2

southern crabgrass [12] = assay: Test Example 5: herbicidal effect by foliage application, plastic box (Table 20, symbol F); assay type: in vivo, southern crabgrass (Digitaria ciliaris); conditions: foliage application, 3 weeks after application
In short: (§3)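 Plants were sown into sterilized diluvial soil under about 1.5 cm cover and kept in a greenhouse at 25° C. to 30° C. Fourteen days on, foliage received an even spray of the diluted emulsion. Herbicidal or crop effect was judged three weeks afterwards.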

green foxtail [13] = assay: Test Example 5: herbicidal effect by foliage application, plastic box (Table 20, symbol G); assay type: in vivo, green foxtail (Setaria viridis); conditions: foliage application, 3 weeks after application
In short: as §3

barnyard grass [14] = assay: Test Example 5: herbicidal effect by foliage application, plastic box (Table 20, symbol H); assay type: in vivo, barnyard grass (Echinochloa crus-galli); conditions: foliage application, 3 weeks after application
In short: as §3

wild oat [15] = assay: Test Example 5: herbicidal effect by foliage application, plastic box (Table 20, symbol I); assay type: in vivo, wild oat (Avena fatua); conditions: foliage application, 3 weeks after application
In short: as §3

blackgrass [16] = assay: Test Example 5: herbicidal effect by foliage application, plastic box (Table 20, symbol J); assay type: in vivo, blackgrass (Alopecurus myosuroides); conditions: foliage application, 3 weeks after application
In short: as §3

Italian ryegrass [17] = assay: Test Example 5: herbicidal effect by foliage application, plastic box (Table 20, symbol K); assay type: in vivo, Italian ryegrass (Lolium multiflorum); conditions: foliage application, 3 weeks after application
In short: as §3

windgrass [18] = assay: Test Example 5: herbicidal effect by foliage application, plastic box (Table 20, symbol L); assay type: in vivo, windgrass (Apera spica-venti); conditions: foliage application, 3 weeks after application
In short: as §3

velvetleaf [19] = assay: Test Example 5: herbicidal effect by foliage application, plastic box (Table 20, symbol M); assay type: in vivo, velvetleaf (Abutilon theophrasti); conditions: foliage application, 3 weeks after application
In short: as §3

lambsquarters [20] = assay: Test Example 5: herbicidal effect by foliage application, plastic box (Table 20, symbol O); assay type: in vivo, lambsquarters (Chenopodium album); conditions: foliage application, 3 weeks after application
In short: as §3

persian speedwell [21] = assay: Test Example 5: herbicidal effect by foliage application, plastic box (Table 20, symbol R); assay type: in vivo, Persian speedwell (Veronica persica); conditions: foliage application, 3 weeks after application
In short: as §3

COc1nn(C)c(=O)c(-c2c(-c3ccsc3)sc3ccccc23)c1O [1-192]
herbicidal effect on H (barnyard grass), rating 0-5 (barnyard grass [1]; 80 g/ha): 1 (Herbicidal rate of 5% or more and less than 20%) | herbicidal effect on D (Chinese sprangletop), rating 0-5 (Chinese sprangletop; 80 g/ha): 4 (Herbicidal rate of 70% or more and less than 90%) | herbicidal effect on E (rice flat sedge), rating 0-5 (rice flat sedge; 80 g/ha): 4 (Herbicidal rate of 70% or more and less than 90%) | F: southern crabgrass, herbicidal effect rating (southern crabgrass [2]; AAH 80 g/ha): 0 (Herbicidal rate of 5% or less (almost no effect)) | G: green foxtail, herbicidal effect rating (green foxtail [3]; AAH 80 g/ha): 0 (Herbicidal rate of 5% or less (almost no effect)) | H: barnyard grass, herbicidal effect rating (barnyard grass [4]; AAH 80 g/ha): 0 (Herbicidal rate of 5% or less (almost no effect)) | I: wild oat, herbicidal effect rating (wild oat [5]; AAH 80 g/ha): 0 (Herbicidal rate of 5% or less (almost no effect)) | J: blackgrass, herbicidal effect rating (blackgrass [6]; AAH 80 g/ha): 0 (Herbicidal rate of 5% or less (almost no effect)) | K: Italian ryegrass, herbicidal effect rating (Italian ryegrass [7]; AAH 80 g/ha): 0 (Herbicidal rate of 5% or less (almost no effect)) | L: windgrass, herbicidal effect rating (windgrass [8]; AAH 80 g/ha): 0 (Herbicidal rate of 5% or less (almost no effect)) | M: velvetleaf, herbicidal effect rating (velvetleaf [9]; AAH 80 g/ha): 0 (Herbicidal rate of 5% or less (almost no effect)) | N: redroot pigweed, herbicidal effect rating (redroot pigweed; AAH 80 g/ha): 0 (Herbicidal rate of 5% or less (almost no effect)) | O: lambsquarters, herbicidal effect rating (lambsquarters [10]; AAH 80 g/ha): 0 (Herbicidal rate of 5% or less (almost no effect)) | P: chickweed, herbicidal effect rating (chickweed; AAH 80 g/ha): 3 (Herbicidal rate of 40% or more and less than 70%) | R: persian speedwell, herbicidal effect rating (persian speedwell [11]; AAH 80 g/ha): 0 (Herbicidal rate of 5% or less (almost no effect)) | effect on southern crabgrass (F) (southern crabgrass [12]; 80 g/ha): 0 (Herbicidal rate of 5% or less (almost no effect)) | effect on green foxtail (G) (green foxtail [13]; 80 g/ha): 0 (Herbicidal rate of 5% or less (almost no effect)) | effect on barnyard grass (H) (barnyard grass [14]; 80 g/ha): 0 (Herbicidal rate of 5% or less (almost no effect)) | effect on wild oat (I) (wild oat [15]; 80 g/ha): 0 (Herbicidal rate of 5% or less (almost no effect)) | effect on blackgrass (J) (blackgrass [16]; 80 g/ha): 0 (Herbicidal rate of 5% or less (almost no effect)) | effect on Italian ryegrass (K) (Italian ryegrass [17]; 80 g/ha): 0 (Herbicidal rate of 5% or less (almost no effect)) | effect on windgrass (L) (windgrass [18]; 80 g/ha): 0 (Herbicidal rate of 5% or less (almost no effect)) | effect on velvetleaf (M) (velvetleaf [19]; 80 g/ha): 0 (Herbicidal rate of 5% or less (almost no effect)) | effect on lambsquarters (O) (lambsquarters [20]; 80 g/ha): 0 (Herbicidal rate of 5% or less (almost no effect)) | effect on persian speedwell (R) (persian speedwell [21]; 80 g/ha): 3 (Herbicidal rate of 40% or more and less than 70%)

C=Cc1ccc(-c2sc3ccc(F)cc3c2-c2c(OC(=O)CCC)c(C)nn(C)c2=O)cc1 [2-019]
herbicidal effect on H (barnyard grass), rating 0-5 (barnyard grass [1]; 320 g/ha): 5 (Herbicidal rate of 90% or more (almost completely withered)) | herbicidal effect on D (Chinese sprangletop), rating 0-5 (Chinese sprangletop; 320 g/ha): 3 (Herbicidal rate of 40% or more and less than 70%) | herbicidal effect on E (rice flat sedge), rating 0-5 (rice flat sedge; 320 g/ha): 4 (Herbicidal rate of 70% or more and less than 90%) | herbicidal effect rating, F: southern crabgrass (southern crabgrass [2]; 320 g/ha): 0 (Herbicidal rate of 5% or less (almost no effect)) | herbicidal effect rating, G: green foxtail (green foxtail [3]; 320 g/ha): 2 (Herbicidal rate of 20% or more and less than 40%) | herbicidal effect rating, H: barnyard grass (barnyard grass [4]; 320 g/ha): 0 (Herbicidal rate of 5% or less (almost no effect)) | herbicidal effect rating, I: wild oat (wild oat [5]; 320 g/ha): 0 (Herbicidal rate of 5% or less (almost no effect)) | herbicidal effect rating, J: blackgrass (blackgrass [6]; 320 g/ha): 0 (Herbicidal rate of 5% or less (almost no effect)) | herbicidal effect rating, K: Italian ryegrass (Italian ryegrass [7]; 320 g/ha): 5 (Herbicidal rate of 90% or more (almost completely withered)) | herbicidal effect rating, L: windgrass (windgrass [8]; 320 g/ha): 1 (Herbicidal rate of 5% or more and less than 20%) | herbicidal effect rating, M: velvetleaf (velvetleaf [9]; 320 g/ha): 0 (Herbicidal rate of 5% or less (almost no effect)) | herbicidal effect rating, N: redroot pigweed (redroot pigweed; 320 g/ha): 5 (Herbicidal rate of 90% or more (almost completely withered)) | herbicidal effect rating, O: lambsquarters (lambsquarters [10]; 320 g/ha): 3 (Herbicidal rate of 40% or more and less than 70%) | herbicidal effect rating, P: chickweed (chickweed; 320 g/ha): 4 (Herbicidal rate of 70% or more and less than 90%) | herbicidal effect rating, R: persian speedwell (persian speedwell [11]; 320 g/ha): 5 (Herbicidal rate of 90% or more (almost completely withered)) | effect on southern crabgrass (F) (southern crabgrass [12]; 320 g/ha): 4 (Herbicidal rate of 70% or more and less than 90%) | effect on green foxtail (G) (green foxtail [13]; 320 g/ha): 5 (Herbicidal rate of 90% or more (almost completely withered)) | effect on barnyard grass (H) (barnyard grass [14]; 320 g/ha): 5 (Herbicidal rate of 90% or more (almost completely withered)) | effect on wild oat (I) (wild oat [15]; 320 g/ha): 4 (Herbicidal rate of 70% or more and less than 90%) | effect on blackgrass (J) (blackgrass [16]; 320 g/ha): 0 (Herbicidal rate of 5% or less (almost no effect)) | effect on Italian ryegrass (K) (Italian ryegrass [17]; 320 g/ha): 3 (Herbicidal rate of 40% or more and less than 70%) | effect on windgrass (L) (windgrass [18]; 320 g/ha): 4 (Herbicidal rate of 70% or more and less than 90%) | effect on velvetleaf (M) (velvetleaf [19]; 320 g/ha): 5 (Herbicidal rate of 90% or more (almost completely withered)) | effect on lambsquarters (O) (lambsquarters [20]; 320 g/ha): 5 (Herbicidal rate of 90% or more (almost completely withered)) | effect on persian speedwell (R) (persian speedwell [21]; 320 g/ha): 5 (Herbicidal rate of 90% or more (almost completely withered))
